According to PMC5078989, “Targeted inhibition of the COP9 signalosome for treatment of cancer” (Nature Communications, 2016):

Test system: panel of cancer cell lines
Experiment: Cell viability (CellTiter-Glo) dose-response across cancer cell line panel;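 as to EC50: after 72 h compound incubation with CellTiter-Glo ATP readout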
Type: cell-based, human
Settings: for EC50: Homo sapiens
From the text: Next, we explored the effect of CSN5 inhibition on the viability of cancer cells. To obtain a comprehensive picture, we generated dose–response curves with a CSN5 inhibitor across more than 500 cancer cell lines in a previously described standardized setting[47] (Supplementary Data 1).
A standardized CellTiter-Glo Assay (Promega #G7570) based on the quantification of ATP was applied according to the manufacturer's protocol to measure the amount of viable cells in culture. In brief, cells were seeded into 384-well plates at optimal density for each cell line. After 4 h, compounds were added at different concentrations in growth medium and incubated for another 72 h in a humidifying chamber at 37 °C and 5% CO2. […] EC50 values were calculated from the plot of percentage of inhibition versus inhibitor concentration using the nonlinear regression analysis software Origin 7.5SR6 (OriginLab Corp.).

EC50 (8-MG-BA, cell line 8-MG-BA): 18.9 nM
EC50 (22Rv1, 22Rv1): 14.7 nM
EC50 (59M): 13.5 nM
EC50 697: 9 nM
EC50 (769-P): 8.84 nM
EC50 (786-0, 786-O): 8.79 nM
EC50 (1321-N1, 1321N1): 12 nM
EC50 (8305C): 7.18 nM
EC50 (23132/87): 7.39 nM
EC50 (A4/Fuk): 2.23 nM
EC50 (A101D): 3.29 nM
EC50 (A 172, A172): 8.05 nM
EC50 (A204, A-204): 5.28 nM
EC50 (A253, A-253): 9.94 nM
EC50 (A549, A549): 30.8 nM
EC50 (A673, A-673): 5.83 nM
EC50 (A2058, A2058): 19.4 nM
EC50 (A2780, A2780): 10.7 nM
EC50 (A-375, A-375): 12.1 nM
EC50 (ABC-1, ABC-1): 3.02 nM
EC50 (ACC-MESO-1, ACC-MESO-1): 23.6 nM
EC50 (ACHN): 7.43 nM
EC50 (AMO1, AMO-1): 2.18 nM
EC50 (AN3-CA, cell line AN3 CA): 15.5 nM
EC50 (AU565, AU565): 6.2 nM
EC50 (BFTC-909, BFTC-909): 20.9 nM
EC50 (BHY): 7.83 nM
EC50 (BICR 6): 18.4 nM
EC50 (BICR 16): 38.8 nM
EC50 (BICR 22): 12.3 nM
EC50 (BL-41, BL-41): 1.54 nM
EC50 (BT-20, BT-20): 26.8 nM
EC50 (BT-549, BT-549): 5.76 nM
EC50 (BV-173, BV-173): 8.13 nM
EC50 (BXPC-3, BxPC-3): 15.1 nM
EC50 (C32, C32): 13 nM
EC50 (CAKI-1, Caki-1): 12 nM
EC50 (CAKI-2, cell line Caki-2): 22.8 nM
EC50 (CAL-29): 16.3 nM
EC50 (CAL-51, CAL-51): 17.9 nM
EC50 (CAL-54, CAL-54): 9.06 nM
EC50 (CAL-78): 7.82 nM
EC50 (CAL-120, CAL-120): 7.23 nM
EC50 (CAMA-1, CAMA-1): 8.61 nM
EC50 (CAPAN-1, Capan-1): 9.26 nM
EC50 (CAS-1): 16.6 nM
EC50 (CCK-81): 9.52 nM
EC50 (CCRF-CEM): 3.12 nM
EC50 (CFPAC-1, CFPAC-1): 6.34 nM
EC50 (CHL-1, CHL-1): 9.51 nM
EC50 (CHP-212, cell line CHP-212): 5.04 nM
EC50 (CMK): 3.98 nM
EC50 (CMK-11-5, CMK-11-5): 6.27 nM
EC50 (CML-T1, CML-T1): 3.65 nM
EC50 (COLO 205, COLO 205): 35.7 nM
EC50 (COLO 320, COLO-320): 19 nM
EC50 (COLO 699, COLO-699): 9.17 nM
EC50 (COLO 704, COLO-704): 5.98 nM
EC50 (COLO 775): 5.24 nM
EC50 (COLO 792): 5.11 nM
EC50 (COLO-668, COLO 668): 13.2 nM
EC50 (COLO-680N): 12.3 nM
EC50 (COLO-741, COLO 741): 11 nM
EC50 (COLO-800, cell line COLO-800): 10.1 nM
EC50 (COLO-829, COLO 829): 16.6 nM
EC50 (COR-L23, cell line COR-L23): 17.8 nM
EC50 (COR-L47, COR-L47): 9.05 nM
EC50 (COR-L88, COR-L88): 29.3 nM
EC50 (COR-L279, COR-L279): 7.34 nM
EC50 (COV318, COV318): 6.86 nM
EC50 (COV504, COV504): 7.72 nM
EC50 (COV644): 6.9 nM
EC50 (Calu-1, Calu-1): 17.6 nM
EC50 (Calu-3, Calu-3): 4.34 nM
EC50 (Calu-6, Calu-6): 17.8 nM
EC50 (Caov-3, Caov-3): 7.49 nM
EC50 (Ci-1, CI-1): 4.61 nM
EC50 (DAN-G): 8.14 nM
EC50 (DB): 3.38 nM
EC50 (DBTRG-05MG, cell line DBTRG-05MG): 34.7 nM
EC50 (DK-MG): 5.7 nM
EC50 (DLD-1, DLD-1): 6.51 nM
EC50 (DMS-79, cell line DMS 79): 13.6 nM
EC50 (DMS-114, DMS 114): 14 nM
EC50 (DMS-273, DMS 273): 6.64 nM
EC50 (DOHH-2, DOHH-2): 4.61 nM
EC50 (DU-145, DU 145): 17.5 nM
EC50 (DU-4475, DU4475): 5.05 nM
EC50 (DV-90, DV-90): 22.4 nM
EC50 (Daoy): 6.56 nM
EC50 (Detroit 562, cell line Detroit 562): 11.4 nM
EC50 (EBC-1, EBC-1): 8.25 nM
EC50 (EFM-19, EFM-19): 22.5 nM
EC50 (EFM-192A): 25.5 nM
EC50 (EM-2, EM-2): 1.63 nM
EC50 (EN): 15 nM
EC50 (EOL1, EOL-1): 6.8 nM
EC50 (ES-2, ES-2): 10.4 nM
EC50 (ESS-1, ESS-1): 8.62 nM
EC50 (FU-OV-1): 12.5 nM
EC50 (FaDu, cell line FaDu): 16.5 nM
EC50 (G-361, G-361): 2.83 nM
EC50 (G-401, G-401): 8.69 nM
EC50 (G-402, G-402): 5.03 nM
EC50 (GA-10, cell line GA-10): 15.5 nM
EC50 (GAMG, cell line GAMG): 17.7 nM
EC50 (GCIY): 6.77 nM
EC50 (GMS-10, cell line GMS-10): 11.2 nM
EC50 (GOS-3): 6.46 nM
EC50 (GP2d): 14.7 nM
EC50 (GR-M): 7.08 nM
EC50 (Granta-519, GRANTA-519): 3.79 nM
EC50 (HARA): 11.9 nM
EC50 (HCC15, HCC-15): 23.1 nM
EC50 (HCC38, HCC38): 3.99 nM
EC50 (HCC44, HCC-44): 19.7 nM
EC50 (HCC95, HCC-95): 14.1 nM
EC50 (HCC366, HCC-366): 11.1 nM
EC50 (HCC827, HCC827): 8.42 nM
EC50 (HCC1143, HCC1143): 15.1 nM
EC50 (HCC1171, HCC-1171): 27.1 nM
EC50 (HCC1187, HCC1187): 6.22 nM
EC50 (HCC1395, HCC1395): 17.5 nM
EC50 (HCC1419, HCC1419): 28.6 nM
EC50 (HCC1428, HCC1428): 396 nM
SMILES: CC(C)C[C@H](NC(=O)[C@H](Cc1ccccc1)NC(=O)c1cnccn1)B(O)O [Bortezomib]
AMAX (22Rv1): -94.313
AMAX (59M): -95.8554
AMAX (769-P): -95.8011
AMAX (786-O): -95.6334
AMAX (A4/Fuk): -96.8168
AMAX (A101D): -96.1689
AMAX (BV-173): -96.2276
AMAX (CAL-54): -95.8702
AMAX (CAL-78): -96.6244
AMAX (CAS-1): -94.9696
AMAX (CMK-11-5): -95.7224
AMAX (CML-T1): -97.037
AMAX (COLO 668): -97.3658
AMAX (COR-L88): -87.7017
AMAX (COR-L279): -96.4332
AMAX (COV318): -92.9911
AMAX (COV504): -89.7599
AMAX (DK-MG): -95.0625
AMAX (DMS 273): -96.4842
AMAX (DOHH-2): -97.4407
AMAX (EM-2): -96.8249
AMAX (GCIY): -97.1531
AMAX (GR-M): -97.3342
AMAX (HEC-6): -96.6882
AMAX (HEC-50B): -86.5583
AMAX (HEC-151): -96.6048
AMAX (HEC-265): -95.5903
AMAX (HGC-27): -96.7322
AMAX (HLC-1): -96.4119
AMAX (HMC-1-8): -96.1255
AMAX (HTK-): -96.3221
EC50 (HCC70, HCC70): 7.14 nM
